Structures can show the parent of a compound that is named as a salt.
Key:
[1] = test system: A. baumannii LMG 1025 (ATCC 17978); experiment: Assay 2: growth inhibition of A. baumannii by sub-inhibitory chloramphenicol in combination with examples (resazurin reduction); type: cell-based, Acinetobacter baumannii; conditions: read-out: EC90 on A. baumannii with 10 μg/mL of chloramphenicol, 10 μg/mL chloramphenicol, 5 h or 24 h, 37° C.
Description: (§1) Escherichia coli BW25113 (CGSC 7636) and its derivatives E. coli ΔtolC (JW5503-1, ΔtolC732::kan, CGSC 11430), E. coli ΔacrA (JW0452-3, ΔacrA748::kan, CGSC 11843) and E. coli ΔacrB (JW0451-2, ΔacrB747::kan, CGSC 8609) were obtained from E. coli Genetic Stock Center (CGSC, New Haven, Connecticut) and originated from the Keio Collection (Baba T et al, Mol Sys Biol, 2006). Klebsiella pneumoniae (LMG 2095/ATCC 13883) and K. pneumoniae (ATCC43816), Pseudomonas aeruginosa (PAO1), Acinetobacter baumannii (LMG 1025, ATCC 17978), were obtained from ATCC or BCCM/LMG Bacteria Collection. All bacteria were grown and tested in cation-adjusted Mueller-Hinton broth (CAMHB; BD Difco) at 37° C. For conservation, log phase bacteria were frozen (−80° C.) in CAMHB supplemented with 15% glycerol.
Measurement of Growth Inhibition of A. baumannii Strains by Sub Inhibitory Concentrations of Chloramphenicol in Combination with Examples 1-137
For the evaluation of the dose dependent activity of examples 1-137, their ability to boost the antibacterial activity of sub-inhibitory concentrations chloramphenicol was determined. Briefly, A. baumannii LMG 1025 (ATCC 17978) were diluted from frozen or growing stocks to an OD600 of 0.001 in CAMHB. The bacterial suspension was then used as such (no-antibiotic control to evaluate EPI activity), or spiked with chloramphenicol at a final concentration of 10 μg/mL. Bacteria were then added to microplates carrying serial dilutions of the compounds examples 1-137, and incubated for (5 h or 24 h, 37° C.). Bacterial viability was evaluated using the resazurin reduction assay, and measured by fluorescence (POLARstar Omega, BMG Labtech: Ex: 530 nm Em: 590 nm). […] were defined as the compound concentration that prevented 90% of resazurin turnover compared to the non-treated bacteria.

[2] = test system: E. coli BW25113; experiment: Assay 1: growth inhibition of E. coli by sub-inhibitory pyridomycin in combination with examples (resazurin reduction); type: cell-based, Escherichia coli; conditions: read-out: EC50 on E. coli with 8 μg/mL of pyridomycin, 8 μg/mL pyridomycin, 5 h, 37° C.
Description: as §1
Briefly, E. coli BW25113 were diluted from frozen or growing stocks to an OD600 of 0.0004-0.001 in CAMHB. […] E. coli BW25113 viability was evaluated using the resazurin reduction assay, and measured by fluorescence (POLARstar Omega, BMG Labtech: Ex: 530 nm Em: 590 nm). EC50 were defined as the compound concentration that prevented 50% of resazurin turnover compared to the non-treated bacteria.

Structure (SMILES)	EC90 [1] [µM]	EC50 [2] [µM]
FC(F)(F)c1cnc(N2CCCNCC2)c(Cl)c1 [Example 6, 1-[3-chloro-5-(trifluoromethyl)-2-pyridyl]-1,4-diazepane]	100 to 500	100 to 500
Brc1cnc(N2CCCNCC2)c2ccccc12 [Example 8, 4-bromo-1-(1,4-diazepan-1-yl)isoquinoline]	5 to 100	5 to 100
CCN1CCN(c2nc3ccccc3nc2Cl)CC1 [Example 9, 2-chloro-3-(4-ethylpiperazin-1-yl)quinoxaline;hydrochloride]	100 to 500	5 to 100
Clc1cc2ccccc2nc1N1CCCNCC1 [Example 11, 3-chloro-2-(1,4-diazepan-1-yl)quinoline]	100 to 500	5 to 100
FC(F)(F)c1cnc(N2CCNCC2)c(Cl)c1 [Example 14, 1-[3-chloro-5-(trifluoromethyl)-2-pyridyl]piperazine; hydrochloride]	100 to 500	5 to 100
FC(F)(F)c1cnc(N2CC3CC2CN3)c(Cl)c1 [Example 15, (1S,4S)-2-[3-chloro-5-(trifluoromethyl)-2-pyridyl]-2,5-diazabicyclo[2.2.1]heptane;formic acid]	100 to 500	100 to 500
FC(F)(F)c1cnc(N[C@H]2[C@@H]3CNC[C@@H]32)c(Cl)c1 [Example 16, (1R,5S)-N-[3-chloro-5-(trifluoromethyl)-2-pyridyl]-3-azabicyclo[3.1.0]hexan-6-amine;formic acid]	100 to 500	
FC(F)(F)c1cnc(N2CCNCC2)c(Br)c1 [Example 17, 1-[3-bromo-5-(trifluoromethyl)-2-pyridyl]piperazine; hydrochloride]	100 to 500	5 to 100
FC(F)(F)c1ccc(N2CCNCC2)c(Cl)c1 [Example 20, 1-[2-chloro-4-(trifluoromethyl)phenyl]piperazine; hydrochloride]	100 to 500	5 to 100
FC(F)(F)c1cc(I)cnc1N1CCNCC1 [Example 21, 1-[5-iodo-3-(trifluoromethyl)-2-pyridyl]piperazine; hydrochloride]	100 to 500	5 to 100
O=C(OCc1ccccc1)c1cnc(N2CCNCC2)c(Cl)c1 [Example 22, benzyl 5-chloro-6-piperazin-1-yl-pyridine-3-carboxylate;hydrochloride]	100 to 500	5 to 100
O=C(OCCCc1ccccc1)c1cnc(N2CCNCC2)c(Cl)c1 [Example 23, 3-phenylpropyl 5-chloro-6-piperazin-1-yl-pyridine-3-carboxylate;hydrochloride]	100 to 500	100 to 500
Clc1nc2ccccc2nc1N[C@H]1[C@@H]2CNC[C@@H]21 [Example 51, N-[(1R,5S)-3-azabicyclo[3.1.0]hexan-6-yl]-3-chloro-quinoxalin-2-amine;hydrochloride]	100 to 500	
Clc1cc2ccccc2nc1N[C@H]1[C@@H]2CNC[C@@H]21 [Example 57, N-[(1R,5S)-3-azabicyclo[3.1.0]hexan-6-yl]-3-chloro-quinolin-2-amine;hydrochloride]	100 to 500	
NCCCC#Cc1cnc(N2CCNCC2)c(Cl)c1 [Example 87, 5-(5-chloro-6-piperazin-1-yl-3-pyridyl)pent-4-yn-1-amine; 2,2,2-trifluoroacetic acid]		< 5
C#Cc1cnc(N2CCNCC2)c(Cl)c1 [Example 88, 1-(3-chloro-5-ethynyl-2-pyridyl)piperazine]		5 to 100
Clc1cc(C#Cc2ccccc2)cnc1N1CCNCC1 [Example 89, 1-[3-chloro-5-(2-phenylethynyl)-2-pyridyl]piperazine; 2,2,2-trifluoroacetic acid]		5 to 100
NCCc1ccc(C#Cc2cnc(N3CCNCC3)c(Cl)c2)cc1 [Example 92, 2-[4-[2-(5-chloro-6-piperazin-1-yl-3-pyridyl)ethynyl]phenyl]ethanamine; 2,2,2-trifluoroacetic acid]		< 5
NCCCn1cc(-c2ccc3nc(N4CCNCC4)c(Cl)cc3c2)nn1 [Example 93, 3-[4-(3-chloro-2-piperazin-1-yl-6-quinolyl)triazol-1-yl]propan-1-amine;dihydrochloride]		< 5

Structure (SMILES)	EC90 [1] [µM]	EC50 [2] [µM]
NCCn1cc(-c2ccc3nc(N4CCNCC4)c(Cl)cc3c2)nn1 [Example 94, 2-[4-(3-chloro-2-piperazin-1-yl-6-quinolyl)triazol-1-yl]ethanamine;dihydrochloride]		< 5
CN(C)CCn1cc(-c2ccc3nc(N4CCNCC4)c(Cl)cc3c2)nn1 [Example 95, 2-[4-(3-chloro-2-piperazin-1-yl-6-quinolyl)triazol-1-yl]-N,N-dimethyl-ethanamine;dihydrochloride]		< 5
O=C1NCCN1c1ccc2nc(N3CCNCC3)c(Cl)cc2c1 [Example 96, 1-(3-chloro-2-piperazin-1-yl-6-quinolyl)imidazolidin-2-one;hydrochloride]		< 5
O=C1CCCN1c1ccc2nc(N3CCNCC3)c(Cl)cc2c1 [Example 97, 1-(3-chloro-2-piperazin-1-yl-6-quinolyl)pyrrolidin-2-one;hydrochloride]		< 5
NCC1CCN(c2ccc3nc(N4CCNCC4)c(Cl)cc3c2)CC1 [Example 99, [1-(3-chloro-2-piperazin-1-yl-6-quinolyl)-4-piperidyl]methanamine;dihydrochloride]		< 5
NCC1CCN(c2ccc3nc(N4CCNCC4)c(Cl)cc3c2)C1 (stereo not drawn) [Example 100, [1-(3-chloro-2-piperazin-1-yl-6-quinolyl)pyrrolidin-3-yl]methanamine;dihydrochloride]		< 5
N[C@@H]1CCN(c2ccc3nc(N4CCNCC4)c(Cl)cc3c2)C1 [Example 101, (3R)-1-(3-chloro-2-piperazin-1-yl-6-quinolyl)pyrrolidin-3-amine;dihydrochloride]		< 5
N[C@H]1CCN(c2ccc3nc(N4CCNCC4)c(Cl)cc3c2)C1 [Example 102, (3S)-1-(3-chloro-2-piperazin-1-yl-6-quinolyl)pyrrolidin-3-amine;dihydrochloride]		< 5
Clc1cc2cc(N[C@@H]3CCNC3)ccc2nc1N1CCNCC1 [Example 103, 3-chloro-2-piperazin-1-yl-N-[(3R)-pyrrolidin-3-yl]quinolin-6-amine;dihydrochloride]		5 to 100
OCc1cccc(-c2ccc3nc(N4CCNCC4)c(Cl)cc3c2)c1 [Example 108, [3-(3-chloro-2-piperazin-1-yl-6-quinolyl)phenyl]methanol;hydrochloride]		< 5
C[C@@H](N)c1cccc(-c2ccc3nc(N4CCNCC4)c(Cl)cc3c2)c1 [Example 113, (1R)-1-[3-(3-chloro-2-piperazin-1-yl-6-quinolyl)phenyl]ethanamine;dihydrochloride]		< 5
CC(C)(N)c1cccc(-c2ccc3nc(N4CCNCC4)c(Cl)cc3c2)c1 [Example 114, 2-[3-(3-chloro-2-piperazin-1-yl-6-quinolyl)phenyl]propan-2-amine;dihydrochloride]		< 5
NCCc1cccc(-c2ccc3nc(N4CCNCC4)c(Cl)cc3c2)c1 [Example 115, 2-[3-(3-chloro-2-piperazin-1-yl-6-quinolyl)phenyl]ethanamine;dihydrochloride]		< 5
NCc1ccc(C(F)(F)F)c(-c2ccc3nc(N4CCNCC4)c(Cl)cc3c2)c1 [Example 122, [3-(3-chloro-2-piperazin-1-yl-6-quinolyl)-4-(trifluoromethyl)phenyl]methanamine;dihydrochloride]		< 5
NCc1ccnc(-c2ccc3nc(N4CCNCC4)c(Cl)cc3c2)c1 [Example 131, [2-(3-chloro-2-piperazin-1-yl-6-quinolyl)-4-pyridyl]methanamine;dihydrochloride]		< 5
NCc1cncc(-c2ccc3nc(N4CCNCC4)c(Cl)cc3c2)c1 [Example 132, [5-(3-chloro-2-piperazin-1-yl-6-quinolyl)-3-pyridyl]methanamine;dihydrochloride]		< 5
NCc1cccc(-c2ccc3nc(N4CCNCC4)c(Cl)cc3c2)c1Cl [Example 136, [2-chloro-3-(3-chloro-2-piperazin-1-yl-6-quinolyl)phenyl]methanamine;dihydrochloride]		< 5
NCc1cc(Cl)cc(-c2ccc3nc(N4CCNCC4)c(Cl)cc3c2)c1 [Example 137, [3-chloro-5-(3-chloro-2-piperazin-1-yl-6-quinolyl)phenyl]methanamine;dihydrochloride]		< 5
